Source: patent publication US7767850B2, “S-[2-[(1-iminoethy)amino]ethyl]-2-methyl-L-cysteine maleate hydrochloride crystalline salt” (Pfizer Inc., priority 2003, dated 2010)

Experiments:
physchem = format: physicochemical
Text: S-[2-[(1-Iminoethyl)amino]ethyl]-2-methyl-L-cysteine maleate hydrochloride crystals are birefringent with positive elongation when analyzed by polarized light microscopy.
Examples 7 and 8 only differ in the nature of agitation afforded to the system. […] The bead was agitated with a magnetic plate. […] Both the examples used 2.0 molar equivalents of maleic acid and 0.5 molar equivalent of HCl for each mole of S-[2-[(1-Iminoethyl)amino]ethyl]-2-methyl-L-cysteine. […] In Example 9, the water content of the system was 2.3% before the addition of acetonitrile, while the ratio of acetonitrile to DMF was 1.98 on weight/weight basis.

[1] = Moisture sorption study by DVS moisture balance; format: physicochemical; conditions: 25° C., sample of Example 10
Text: FIG. 4 is a plot of a moisture sorption study of the crystalline S-[2-[(1-Iminoethyl)amino]ethyl]-2-methyl-L-cysteine maleate hydrochloride. […] Between 70 and 9% R.H., another 58% moisture was taken up by the solids. It is presumed that at 90% R.H. the crystal structure was destroyed to produce highly hygroscopic amorphous solids. During the de-sorption cycle (from 90 to 30% R.H.), these solids transformed into a mixture of form II of the crystalline S-[2-[(1-Iminoethyl)amino]ethyl]-2-methyl-L-cysteine maleate and amorphous zwitterion with excess hydrogen chloride. Subsequent de-sorption and re-sorption behavior was very similar to form II of the crystalline S-[2-[(1-Iminoethyl)amino]ethyl]-2-methyl-L-cysteine maleate. Powder x-ray analysis on the solids at the end of the experiment confirmed the presence of both form II the crystalline S-[2-[(1-Iminoethyl)amino]ethyl]-2-methyl-L-cysteine maleate and amorphous solids.

[2] = format: physicochemical
Text: Additionally, the presence of excess maleic acid dramatically increases the solubility.
1-Butanol was selected as the best solvent to explore the possibility of utilizing a high boiling solvent that can easily be exchanged with water from the upstream aqueous chromatography purification step. […] This process was again designed to be very similar to the DMF/acetonitrile process. Following is a description of the initial process run at the 1 L scale.

[3] = Powder flow, aperture flow tester; format: physicochemical
Text: Orderly packed agglomerates of S-[2-[(1-Iminoethyl)amino]ethyl]-2-methyl-L-cysteine maleate hydrochloride crystals made in Example 20 were studied to determine its powder characteristics that are relevant to the development of a pharmaceutical composition with S-[2-[(1-Iminoethyl)amino]ethyl]-2-methyl-L-cysteine maleate hydrochloride together with a pharmaceutically acceptable carrier. Before testing, the solids were passed through 80-mesh screen corresponding to 177 micrometer opening in order to fragment some very large loose aggregates of the orderly packed agglomerates. The properties tested included powder flow characteristics, powder particle size distribution, powder bulk and tapped density and powder compressibility and compaction. Powder flow was evaluated using an aperture flow tester, measured as the smallest opening at which the powder freely flows through. The powder flow test was repeatedly successful through a 6-mm aperture opening. A powder flow of 6-mm is considered good for formulation development of S-[2-[(1-Iminoethyl)amino]ethyl]-2-methyl-L-cysteine maleate hydrochloride crystals. Successful repetition of flow through a narrower 4-mm opening was, however, dependent on how the powder was introduced to the tester.

[4] = Particle size distribution by sieve analysis; format: physicochemical
Text: (§1) Orderly packed agglomerates of S-[2-[(1-Iminoethyl)amino]ethyl]-2-methyl-L-cysteine maleate hydrochloride crystals made in Example 20 were studied to determine its powder characteristics that are relevant to the development of a pharmaceutical composition with S-[2-[(1-Iminoethyl)amino]ethyl]-2-methyl-L-cysteine maleate hydrochloride together with a pharmaceutically acceptable carrier. Before testing, the solids were passed through 80-mesh screen corresponding to 177 micrometer opening in order to fragment some very large loose aggregates of the orderly packed agglomerates. The properties tested included powder flow characteristics, powder particle size distribution, powder bulk and tapped density and powder compressibility and compaction.
Particle size distribution of the powder was measured using sieve analysis. The mean particle size distribution was calculated using the geometric mean method. […] Only 1.63% of material was considered as fines, less than 75-μm, with more than 90% within 105-250-μm. More than 75% of the material was within 105-150-μm. The tight range in the powder particle size distribution for orderly packed agglomerates is between 100 and 200-μm, which is highly desirable for the development of a pharmaceutical composition with S-[2-[(1-Iminoethyl)amino]ethyl]-2-methyl-L-cysteine maleate hydrochloride together with a pharmaceutically acceptable carrier.

[5] = Bulk and tapped powder density; format: physicochemical; conditions: orderly packed agglomerates of Example 20
Text: as §1
Bulk powder density was evaluated as the mass of material within a 50-ml graduated cylinder.

[6] = Direct compression without excipients: tablet hardness and disintegration; format: physicochemical; conditions: for tablet hardness: 100-mg compacts, no excipients
Method: The powder was evaluated for direct compression without any excipients. Compacts of 100-mg in weight were manufactured using an 8/32 inch (6.35-mm) round concave tooling. Tablets were compressed at various compression forces and evaluated for strength, thickness and disintegration. […] Relatively strong small tablets ( 8/32 inch), as hard as 11-kP, are possible with compression force between 900 and 1000 kg. Tablet strength reaches an apparent maximum between 900 and 1000 kg compression force. Minor adhesion to the punch and die walls were observed during compression experiments. However, the sticking was considered to be a minor problem and could easily be resolved by using an appropriate lubricant. Tablet disintegration times were also evaluated for compacts of orderly packed agglomerates of S-[2-[(1-Iminoethyl)amino]ethyl]-2-methyl-L-cysteine maleate hydrochloride crystals. Three tablets were compressed with compression forces between 500 and 600, corresponding to 8 kP tablet hardness for this material.

[7] = orderly packed agglomerates of Example 20

solubility in water (in words) (physchem) | solubility (physchem; water) | moisture uptake ([1]; between 0 and 70% relative humidity) | further moisture taken up by the solids ([1]; between 70 and 9% R.H. as printed) | solubility in 1-butanol [2] | solubility in methanol [2] | compressibility index [3, 7] | powder flow, smallest aperture opening at which the powder freely flows through ([3]; orderly packed agglomerates of Example 20, passed through 80-mesh screen) | fraction of fines, less than 75-μm [4, 7] | fraction of material within 105-150-μm [4, 7] | fraction of material within 105-250-μm [4, 7] | mean particle size ([4]; orderly packed agglomerates of Example 20, geometric mean method) | bulk powder density [5] | tapped density [5] | tablet hardness ([6]; 8/32 inch, compression force between 900 and 1000 kg) | tablet hardness ([6]; compression forces between 500 and 600) | tablet disintegration time ([6]; three tablets, compression forces between 500 and 600, 8 kP hardness) | Structure (SMILES)
highly soluble in water | > 150 mg/mL | approximately 1.5% | 58% | 0.05 wt % | 6.2 wt % | 17.8% | 6 mm | 1.63% | More than 75% | more than 90% | 134 micrometers | 0.41 g/mL | 0.50 g/mL | ≤ 11 kP | 8 kP | less than 2 minutes | CC(=N)NCCSC[C@](C)(N)C(=O)O.Cl.O=C(O)/C=C\C(=O)O [S-[2-[(1-Iminoethyl)amino]ethyl]-2-methyl-L-cysteine maleate hydrochloride]
highly soluble in water | – | – | – | – | – | – | – | – | – | – | – | – | – | – | – | – | CC(=N)NCCSC[C@](C)(N)C(=O)O [S-[2-[(1-Iminoethyl)amino]ethyl]-2-methyl-L-cysteine]
